These results are taken from patent publication US20250197490A1, “ANTI-CORTICOTROPIN-RELEASING HORMONE ANTIBODIES AND USE IN CONGENITAL ADRENAL HYPERPLASIA” (HBM ALPHA THERAPEUTICS, INC., priority 2021, published 2025).

The subject of this assay is human CRHR1. Kind of assay: CRH-induced luciferase reporter blocking in CHO-CRE-hCRHR1 cells. The format is cell-based. The settings on record: in words. On the procedure: To generate a CHO-CRE-Luciferase Reporter stable cell line, a mixture of 2 million CHO-K1 cells with 10 μg of pGL4.29/luc2P/CRE/Hygro plasmid in 100 μl of Ingenio solution was transferred into electroporation cuvettes and subjected to 1 or 2 pulses using an Electro Cell Manipulator (950 uF and 120V). The processed cells were transferred into a 6-well plate with 2 mL of Dulbecco's Modified Eagle's Medium (DMEM)/F12 with 10% fetal bovine serum (FBS). After 24 hours, selection antibiotic hygromycin at 500 μg/ml was added to the cells. […] Using matrix dilution, the pool of CHO-CRE cells was subcloned into 96-well plates. Individual stable clones were harvested when selected colonies became obvious. Positive clones were validated using a series of diluted forskolin. Validated positive clones were frozen for the future use.
To create CHO-CRE-hCRHR1,-hCRHR2,-mCRHR1, and -mCRHR2 reporter cell lines, pcDNA3.1-hCRHR1,-hCRHR2,-mCRHR1, and -mCRHR2 were introduced into CHO-CRE cells established above by electroporation as described above. Selection antibiotics hygromycin at 500 μg/ml and G418 at 1,000 μg/ml were employed. […]
50 μl of 4× serially diluted antibodies was added (8 points, ¼ diluted by growth medium) to plates containing CHO-CRE-hCRHR1 cells, and 50 μl of 4×CRH (4× is 2 nM, final is 0.5 nM) was added. […] Plates were read in a luciferase plate reader (En Vision, PerkinElmer).
A general note: A reporter such as luciferase makes a cellular process visible.

Each structure is given as a SMILES string.

As to `CCCCN(CC)c1nc(C)nc2c1c(C)c(C)n2-c1c(C)cc(C)cc1C` [Antalarmin, N-butyl-N-ethyl-(2,5,6-trimethyl-7-(2,4,6-trimethylphenyl)-7H-pyrrolo (2,3-d)pyrimidin-4-yl)amine, reference compound], the “blocking activity in human CRHR1 luciferase reporter assay (CRH-mediated luciferase expression)” value is listed as “blocked”.
